Series [1] has as its system C. michiganensis. The series is described as follows: Pathogenicity assay (control effect on tomato plants). In kind it is in vivo, Clavibacter michiganensis. To be noted: stem acupuncture inoculation of C. michiganensis mixed with equal volume of peptide at 2× MIC, greenhouse, at 7 d; for Disease Index: letters = differences at p < 0.05; for Control Efficacy (%): relative to PBS buffer group. On the procedure: C. michiganensis was cultured to the logarithmic growth phase, then the pathogenic bacteria were mixed with an equal volume of antimicrobial peptides at 2× MIC, and finally tomato plants were inoculated using the stem acupuncture method. The positive control was mixed with an equal volume of polymyxin B and pathogenic bacteria, and the negative control was mixed with an equal volume of PBS buffer and pathogenic bacteria. After inoculation, the tomato plants were cultured under greenhouse conditions, and the disease incidence was observed and recorded. The equation of disease grading criteria, incidence rate, and disease index are found in Supplementary Method S5. […]
Peptide purification procedure
B. subtilis was grown in 300 mL liquid LB medium containing kanamycin (10 mg/L) and incubated at 180 r/min, 37 °C for 72 h. The supernatant was collected by centrifugation at […]
10,000× g for 25 min at 4°C. […]
Pathogenecity assay equation
C. michiganensis disease grading criteria are as follows, grade 0: no wilting or stem necrosis of leaves (or cotyledons); grade 1: mild yellowing or wilting of leaves (or cotyledons); grade 2: moderate wilting or wilting of leaves (or cotyledons) and mild necrosis of stem; Grade 3: severe wilting of leaves (or cotyledons) or severe necrosis of stem; Grade 4: plant death. The formulas for incidence rate, disease index and control efficacy are as follows: Incidence rate

Series [2] relates to C. michiganensis. The series is described as follows: Minimum inhibitory concentration (MIC) assay. In kind it is cell-based, Clavibacter michiganensis. To be noted: purified peptide, 96-well plate, LB, 28 °C, 12 h. On the procedure:
(§1) The indicator bacteria were inoculated in LB liquid medium (OD600 ≈ 0.8–1.0) and then diluted with the indicator bacteria (OD600 ≈ 0.02–0.05). After that, we added 40 μL of diluted indicator bacteria solution to 96-well titer plates. The AMPs were diluted through a series of concentration gradients, and then an equal volume of peptides was added to the above 96-well plate and incubated at 28 °C for 12 h. […] To determine the time-kill assay, the purified antimicrobial peptide concentration was adjusted to 2× MIC concentration, and then added to a 96-well plate in equal volume with the indicator bacteria, with at least 3 wells for each concentration. After mixing the liquid evenly, it was incubated at 28 °C for 2 h, 4 h, 6 h, 8 h, 10 h, 12 h, and 24 h, and then the OD value was obtained at 600 nm.

Series [3] relates to X. oryzae pv. oryzicola. In kind it is cell-based, Xanthomonas oryzae pv. oryzicola. To be noted: 20 μL extracellular peptides on filter paper, 28 °C, 5-7 h, mean ± SD, three independent experiments.
For series [4], the system named is X. oryzae pv. oryzae. In kind it is cell-based, Xanthomonas oryzae pv. oryzae. To be noted: purified peptide, 96-well plate, LB, 28 °C, 12 h.
Series [5] relates to X. campestris pv. Holcicola. The series is described as follows: Minimum inhibitory concentration (MIC) assay. In kind it is cell-based, Xanthomonas campestris pv. Holcicola. To be noted: purified peptide, 96-well plate, LB, 28 °C, 12 h. The protocol: as §1
Another series concerns F. graminearum. In kind it is cell-based, Fusarium graminearum. Particulars: 200 μL extracellular peptide per well, 28 °C, 2–4 days, vs PBS.
Series [6] relates to C. fangii. The series is described as follows: Minimum inhibitory concentration (MIC) assay. In kind it is cell-based, Clavibacter fangii. To be noted: purified peptide, 96-well plate, LB, 28 °C, 12 h. The protocol: as §1
Another series relates to B. cinerea. In kind it is cell-based, Botrytis cinerea.
Series [7] concerns X. oryzae pv. oryzicola. In kind it is cell-based, Xanthomonas oryzae pv. oryzicola. Particulars: purified peptide, 96-well plate, LB, 28 °C, 12 h.
The test system of series [8] is four tested strains (C. fangii, X. oryzae pv. oryzicola, X. oryzae pv. oryzae, C. michiganensis). In kind it is cell-based. To be noted: peptides at their MICs, 28 °C, OD 600 nm; after 12 h of treatment.
Series [9] deals with C. fangii. In kind it is cell-based, Clavibacter fangii.
Series [10] has as its system X. oryzae pv. oryzae. In kind it is cell-based, Xanthomonas oryzae pv. oryzae. To be noted: 20 μL extracellular peptides on filter paper, 28 °C, 5-7 h, mean ± SD, three independent experiments.
In series [11] the test system is X. oryzae pv. oryzae. In kind it is cell-based, Xanthomonas oryzae pv. oryzae. To be noted: X. oryzae pv. oryzae co-incubated with peptide 2 h at 28 °C; MIC concentration.
The test system of the next series is porcine erythrocytes. To be noted: 5× MIC, 37 °C, 1 h, absorbance 385 nm, 0.1% Triton X-100 = 100%, PBS = 0%.
For another series, the system named is R. solani. In kind it is cell-based, Rhizoctonia solani.
The test system of series [12] is C. michiganensis, C. fangii, X. oryzae pv. oryzae and X. oryzae pv. oryzicola. In kind it is physicochemical. To be noted: read-out agar diffusion test; for antibacterial activity after heat treatment (thermal stability), 4–75 °C: heated 30 min at 25, 50, 75 °C (4 °C control); for antibacterial activity after heat treatment (thermal stability), 100 °C: heated at 100 °C for 30 min. On the technique in general: Agar diffusion results depend on both activity and mobility in agar.

For series [13], the system named is Gram-negative bacteria and Gram-positive bacteria. The series is described as follows: MIC assay, range over all tested strains. In kind it is cell-based. Particulars: purified peptide, 96-well plate, 28 °C, 12 h; range over Gram-negative and Gram-positive strains of Table 4. The protocol: as §1
In series [14] the test system is C. michiganensis. In kind it is cell-based, Clavibacter michiganensis.
Series [15] relates to Gram-positive and Gram-negative bacteria. In kind it is physicochemical.
Series [16] deals with C. michiganensis. In kind it is cell-based, Clavibacter michiganensis. The source holds these as a separate data set.
The subject of series [17] is Xanthomonas campestris pv. Holcicola. In kind it is cell-based.

Usually MIC stands for the least concentration at which growth counts as inhibited. Higher therefore signals weaker potency.

Ends that are not written are not given here.

Regarding Polymyxin B [reference compound], in the series with C. michiganensis [1], the “Incidence (%)” value is listed as 10.00 d %, the “Disease Index” value amounted to 3.33 c and the “Control Efficacy (%)” value was 95.75 a %.
As for “LAVHHLHSIRGRHHSCTIAQTQANHRHNSYQPNNSSCLAKETDLPTTRSTPATTSSTAPARKSPPASPAPTRQRLCPSPPRGPVSSRHPRRRGQARGRTRAAGVRRTKGYGGKCV [CgR2150, 115-residue antimicrobial peptide from C. globosum cDNA library, expressed and secreted by B. subtilis SCK6]”, the MIC in the series on C. michiganensis [2] came to 18 µg/mL; against X. oryzae pv. oryzae [4] it was 10 µg/mL; in series [5], 25 µg/mL; against C. fangii [6] it was 15 µg/mL; against X. oryzae pv. oryzicola [7], 10 µg/mL. Further, the “antimicrobial diameter (bacteriostatic spectrum)” value in the series on X. oryzae pv. oryzicola [3] amounted to 1.29 ± 0.034 cm; in the series with C. fangii [9] it was 1.21 ± 0.037 cm; with X. oryzae pv. oryzae [10] it was 1.39 ± 0.036 cm; in the series with C. michiganensis [16] it was 1.19 ± 0.033 cm. Further, in the series with C. michiganensis [1], the “Incidence (%)” value was 13.33 c %. For the same substance, in the series on C. michiganensis [1], the “Disease Index” value was found to be 5.83. In addition, the “Control Efficacy (%)” value in the series on C. michiganensis [1] amounted to 92.56 b %. Further, the “inhibition of mycelia growth (in words)” value in the series on F. graminearum, in the series with B. cinerea and in the series on R. solani was “significantly inhibit the mycelia growth” in each case. In addition, in series [8], the “bacterial growth in time-kill curve” value was “hardly grew”. The “cell membrane damage by SEM” value is “significantly shrunken and morphologically abnormal” in the series on X. oryzae pv. oryzae [11]; “severely damaged, with obvious gaps and ruptures” with C. michiganensis [14]. This substance yielded a hemolytic activity with porcine erythrocytes of 0.32%. In addition, the “antibacterial activity after heat treatment (thermal stability), 4–75 °C” value in series [12] was “obvious antibacterial activity”. Also, in series [12], the “antibacterial activity after heat treatment (thermal stability), 100 °C” value was “lost their activity”. In addition, in [13], the “MIC, range over the five tested bacteria” value was 10 to 25 µg/mL. Besides, the “antibacterial activity after UV treatment (UV stability)” value in [15] is “stable bacteriostatic activity”. Further, the “inhibition of bacterial growth (in words)” value in series [17] was “significantly inhibit the growth”.
With “LAVPNFEPPTRTTCPAPTSPGNPCGPPPPASQTRRPPFHPTSPLRR (cysteines drawn unpaired) [CgR3101]”, the “antimicrobial diameter (bacteriostatic spectrum)” value stood at 1.26 ± 0.024 cm in the series with X. oryzae pv. oryzicola [3], 1.15 ± 0.029 cm in the series on C. fangii [9], 1.19 ± 0.036 cm in the series on X. oryzae pv. oryzae [10] and 1.04 ± 0.033 cm with C. michiganensis [16]. Also, in the series on C. michiganensis [1], the “Incidence (%)” value was 16.67 b %. Besides, in the series with C. michiganensis [1], the “Disease Index” value was 7.50 b. For the same substance, in the series with C. michiganensis [1], the “Control Efficacy (%)” value amounted to 90.43 c %. Besides, the “inhibition of mycelia growth (in words)” value in the series with F. graminearum, in the series on B. cinerea and in the series on R. solani was “significantly inhibit the mycelia growth” throughout. Also, the “bacterial growth in time-kill curve” value in series [8] is given as “hardly grew”. Besides, the “cell membrane damage by SEM” value with X. oryzae pv. oryzae [11] was “significantly shrunken and morphologically abnormal”; in the series on C. michiganensis [14], “severely damaged, with obvious gaps and ruptures”. In [12], the “antibacterial activity after heat treatment (thermal stability), 4–75 °C” value is on record as “obvious antibacterial activity”. For the same substance, the “antibacterial activity after heat treatment (thermal stability), 100 °C” value in [12] is listed as “lost their activity”. For the same substance, the “antibacterial activity after UV treatment (UV stability)” value in [15] is on record as “stable bacteriostatic activity”. Also, the “inhibition of bacterial growth (in words)” value in series [17] is given as “significantly inhibit the growth”.

The record behind these values is PMC9099842, “Isolation of Potato Endophytes and Screening of Chaetomium globosum Antimicrobial Genes” (International Journal of Molecular Sciences, 2022).
